Reference: patent US8697694B2, “Substituted pyridine and pyrimidine derivatives and their use in treating viral infections” (priority 2008, dated 2014)

Each compound was assayed on HCV replicon cells (assay: Cell-based HCV replicon assay (replicon RNA level by real time PCR, Taqman)). Details: Hepatitis C virus, 72 h, HCV replicon cells, harvested day 3, replicon RNA by real time PCR; given as number; read-out: EC90 (μM) range.
Procedure, shortened: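 Readout: ΔCT between NS5B replicon RNA and GAPDH by real-time RT-PCR in lysates harvested on day 3, fitted sigmoidally; EC50 at ΔCT=1, EC90 at ΔCT=3.2. Compounds tested at ten 2-fold dilutions from 25 μM to 1 μM start, 10% FBS, 0.5% DMSO.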

Row | SMILES | EC90
1 | COCCNc1nc(C)c(-c2cc3cc(OCC4CC4)ncc3o2)c(N[C@@H]2C[C@H](CO)[C@@H](O)[C@H]2O)n1 [Example 59] | 2 µM
2 | Cc1nc(NCC2CC2)nc(N[C@@H]2C[C@H](CO)[C@@H](O)[C@H]2O)c1-c1cc2cc(OCC3CC3)nc(C)c2o1 [Example 42] | 0.3 µM

Same assay, conditions: Hepatitis C virus, 72 h, HCV replicon cells, harvested day 3, replicon RNA by real time PCR; reported as range class; read-out: EC90 (μM) range

Row | SMILES | EC90
3 | CC(C)OCCNc1nc(Cl)c(-c2nc3ccccc3s2)c(N[C@@H]2C[C@H](CO)[C@@H](O)[C@H]2O)n1 [Example 219] | < 0.5 µM
4 | OC[C@H]1C[C@@H](Nc2nc(NCCF)nc(Cl)c2-c2nc3ccccc3s2)[C@H](O)[C@@H]1O [Example 213] | < 0.5 µM
5 | Nc1nc(Cl)c(-c2ccccc2)c(N[C@@H]2C[C@H](CO)[C@@H](O)[C@H]2O)n1 [Example 5] | > 5 µM
6 | OC[C@H]1C[C@@H](Nc2nc(N3CCOCC3)nc(Cl)c2-c2nc3ccccc3s2)[C@H](O)[C@@H]1O [Example 116] | 0.5 to 5 µM
7 | CCc1nccc2cc(-c3c(Cl)nc(N)nc3N[C@@H]3C[C@H](CO)[C@@H](O)[C@H]3O)oc12 [Example 308] | < 0.5 µM
8 | Cc1nc(N(C)C)nc(N[C@@H]2C[C@H](CO)[C@@H](O)[C@H]2O)c1-c1nc2ccccc2s1 [Example 313] | < 0.5 µM
9 | Nc1nc(Cl)c(-c2ccc(C=O)o2)c(N[C@@H]2C[C@H](CO)[C@@H](O)[C@H]2O)n1 [Example 156] | > 5 µM

Same assay, conditions: Hepatitis C virus, 72 h, HCV replicon cells, harvested on day 3, replicon RNA by real time PCR; calculated EC90 reported as range class; read-out: EC90 (μM) range

Row | SMILES | EC90
10 | COCc1cc2cc(-c3c(C)nc(NCC(C)(C)C)nc3N[C@@H]3C[C@H](CO)[C@H]4OC(C)(C)O[C@H]43)oc2cn1 [Example 714] | 0.5 to 5 µM
11 | Cc1nc(NCCNC(=O)NC(C)(C)C)nc(N[C@@H]2C[C@H](CO)[C@@H](O)[C@H]2O)c1-c1nc2ccccc2s1 [Example 250] | 0.5 to 5 µM
12 | Cc1ccccc1CNc1nc(C)c(-c2nc3ccccc3s2)c(N[C@@H]2C[C@H](CO)[C@@H](O)[C@H]2O)n1 [Example 488] | < 0.5 µM
13 | COc1ccc(CNc2nc(C)c(-c3nc4ccccc4s3)c(N[C@@H]3C[C@H](CO)[C@H]4OC(C)(C)O[C@H]43)n2)cc1OC [Example 708] | < 0.5 µM
14 | CN(C)c1nc(N[C@@H]2C[C@H](CO)[C@@H](O)[C@H]2O)c(-c2nc3ccccc3s2)c(C2CC2)n1 [Example 416] | 0.5 to 5 µM
15 | Cc1nc(NCC(F)(F)F)nc(N[C@@H]2C[C@H](CO)[C@@H](O)[C@H]2O)c1-c1cc2cc(C(F)(F)F)ncc2o1 [Example 142] | 0.5 to 5 µM
16 | Cc1cccnc1CNc1nc(C)c(-c2nc3ccccc3s2)c(N[C@@H]2C[C@H](CO)[C@@H](O)[C@H]2O)n1 [Example 499] | < 0.5 µM
17 | Cc1cccc(CNc2nc(C)c(-c3nc4ccccc4s3)c(N[C@@H]3C[C@H](CO)[C@H]4OC(C)(C)O[C@H]43)n2)c1 [Example 485] | 0.5 to 5 µM
18 | COC(C)(C)CNc1nc(C)c(-c2nc3ccccc3s2)c(N[C@@H]2C[C@H](CO)[C@H]3OC(C)(C)O[C@H]32)n1 [Example 471] | < 0.5 µM
19 | Cc1nc(NCC(C)(C)C)nc(N[C@@H]2C[C@H](CO)[C@@H](O)[C@H]2O)c1-c1nc2ccccc2s1 [Example 437] | < 0.5 µM
20 | COc1cc(CNc2nc(C)c(-c3nc4ccccc4s3)c(N[C@@H]3C[C@H](CO)[C@@H](O)[C@H]3O)n2)cc(OC)c1OC [Example 711] | < 0.5 µM
21 | CCCCCNc1nc(Cl)c(-c2cc3cc(CC)ncc3o2)c(N[C@@H]2C[C@H](CO)[C@@H](O)[C@H]2O)n1 [Example 511] | < 0.5 µM
22 | Cc1nc(NCc2cccnc2)nc(N[C@@H]2C[C@H](CO)[C@@H](O)[C@H]2O)c1-c1nc2ccccc2s1 [Example 466] | < 0.5 µM
23 | Cc1cc2cc(-c3c(C)nc(NCC4CCCCC4)nc3N[C@@H]3C[C@H](CO)[C@@H](O)[C@H]3O)oc2c(C)n1 [Example 461] | < 0.5 µM
24 | COCCNc1nc(C)c(-c2cc3cc(C(F)(F)F)ncc3o2)c(N[C@@H]2C[C@H](CO)[C@@H](O)[C@H]2O)n1 [Example 139] | 0.5 to 5 µM
25 | CCCCCNc1nc(Cl)c(-c2cc3cc(C)nc(C)c3o2)c(N[C@@H]2C[C@H](CO)[C@@H](O)[C@H]2O)n1 [Example 450] | < 0.5 µM
26 | Cc1nc(NCc2cccc(C(F)(F)F)c2)nc(N[C@@H]2C[C@H](CO)[C@H]3OC(C)(C)O[C@H]32)c1-c1nc2ccccc2s1 [Example 237] | 0.5 to 5 µM
27 | Cc1nc(NCc2ccc(F)cc2)nc(N[C@@H]2C[C@H](CO)[C@H]3OC(C)(C)O[C@H]32)c1-c1nc2ccccc2s1 [Example 235] | < 0.5 µM
28 | Cc1nc(NCc2cccn2C)nc(N[C@@H]2C[C@H](CO)[C@H]3OC(C)(C)O[C@H]32)c1-c1nc2ccccc2s1 [Example 468] | < 0.5 µM
29 | Cc1nc(NCC(F)(F)F)nc(N[C@@H]2C[C@H](CO)[C@@H](O)[C@H]2O)c1-c1nc2cc(N(C)C)ccc2s1 [Example 247] | < 0.5 µM
30 | CCCCCNc1nc(C)c(-c2nc3ccccc3s2)c(N[C@@H]2C[C@H](CO)[C@@H](O)[C@H]2O)n1 [Example 435] | < 0.5 µM
31 | Cc1nc(NCCN2CCOCC2)nc(N[C@@H]2C[C@H](CO)[C@H]3OC(C)(C)O[C@H]32)c1-c1nc2ccccc2s1 [Example 248] | < 0.5 µM
32 | CCc1cc2cc(-c3c(Cl)nc(NCC4CC4)nc3N[C@@H]3C[C@H](CO)[C@@H](O)[C@H]3O)oc2cn1 [Example 503] | < 0.5 µM
33 | CCc1cc2cc(-c3c(C)nc(NCc4cc(OC)cc(OC)c4)nc3N[C@@H]3C[C@H](CO)[C@H]4OC(C)(C)O[C@H]43)oc2cn1 [Example 345] | < 0.5 µM

Same assay, conditions: Hepatitis C virus, 72 h, HCV replicon cells, replicon RNA level by real time PCR (Taqman), harvested on day 3; calculated EC90 reported as range class; read-out: EC90 (μM) range

Row | SMILES | EC90
34 | Cc1nc(NCc2cccs2)nc(N[C@@H]2CC[C@@H](O)[C@H]2O)c1-c1nc2cnccc2s1 [Example 1214] | < 0.5 µM
35 | Cc1nc(NCC2CC2)nc(N[C@@H]2C[C@H](CO)[C@@H](O)[C@H]2O)c1-c1cc2cc(OCC(C)C)nc(C)c2o1 [Example 1054] | 0.5 to 5 µM
36 | Cc1nc(NCc2cccc(S(C)(=O)=O)c2)nc(N[C@@H]2C[C@H](CO)[C@@H](O)[C@H]2O)c1-c1nc2ccccc2s1 [Example 1225] | 0.5 to 5 µM
37 | Cc1cc2sc(-c3c(C)nc(NCC4CC4)nc3N[C@@H]3C[C@H](CO)[C@@H](O)[C@H]3O)nc2c(C)n1 [Example 1134] | < 0.5 µM
38 | Cc1nc(NC(C)c2ccccn2)nc(N[C@@H]2C[C@H](CO)[C@@H](O)[C@H]2O)c1-c1nc2ccccc2s1 (some centres unmarked) [Example 1202] | 0.5 to 5 µM
39 | Cc1nc(NCc2cc(F)cc(F)c2)nc(N[C@@H]2C[C@H](CO)[C@@H](O)[C@H]2O)c1-c1nc2cnccc2s1 [Example 1309] | < 0.5 µM
40 | Cc1nc(NC(C)(C)c2ccccc2)nc(N[C@@H]2C[C@H](CO)[C@@H](O)[C@H]2O)c1-c1nc2ccccc2s1 [Example 1228] | 0.5 to 5 µM
41 | Cc1nc(NCC(C)(C)C)nc(N2CCC[C@H]2CO)c1-c1nc2ccccc2s1 [Example 1223] | > 5 µM
42 | COCc1cc2cc(-c3c(C)nc(NCc4ccco4)nc3N[C@@H]3C[C@H](CO)[C@H]4OC(C)(C)O[C@H]43)oc2cn1 [Example 1107] | 0.5 to 5 µM
43 | CCOc1nc(C)cc2cc(-c3c(C)nc(NCc4cc(OC)cc(OC)c4)nc3N[C@@H]3C[C@H](CO)[C@@H](O)[C@H]3O)oc12 [Example 1248] | 0.5 to 5 µM
44 | Cc1nc(Nc2cccc(F)c2)nc(N[C@@H]2C[C@H](CO)[C@@H](O)[C@H]2O)c1-c1nc2ccccc2s1 [Example 1042] | > 5 µM
45 | Cc1nc(N[C@H](C)C(C)(C)C)nc(N[C@@H]2C[C@H](CO)[C@@H](O)[C@H]2O)c1-c1nc2cnccc2s1 [Example 1308] | 0.5 to 5 µM
46 | Cc1ccc([C@@H](C)Nc2nc(C)c(-c3ccc4ccccc4n3)c(N[C@@H]3C[C@H](CO)[C@@H](O)[C@H]3O)n2)cc1 [Example 1323] | > 5 µM

Same assay, conditions: Hepatitis C virus, 72 h, HCV replicon cells, replicon RNA level by real time PCR, harvested day 3; read-out: EC90 (μM) range

Row | SMILES | EC90
47 | CCCc1nccc2sc(-c3c(C)nc(N[C@H](C)C(F)(F)F)nc3N[C@@H]3C[C@H](CO)[C@@H](O)[C@H]3O)nc12 [Example 1380] | < 0.5 µM
48 | Cc1nc(NC2CCC2)nc(N[C@@H]2C[C@H](CO)[C@@H](O)[C@H]2O)c1-c1nc2ccccc2s1 [Example 1503] | 0.5 to 5 µM
49 | Cc1nc(NCC2CC2)nc(NC2CC(CO)(CO)C2)c1-c1nc2ccccc2s1 [Example 1610] | 0.5 to 5 µM
50 | Cc1nc(N[C@H](C)c2ccc(OC(F)(F)F)cc2)nc(N[C@@H]2C[C@H](CO)[C@@H](O)[C@H]2O)c1-c1nc2c(C)nccc2s1 [Example 1528] | < 0.5 µM
51 | CC(=O)NC[C@H]1C[C@@H](Nc2nc(NCC(F)(F)F)nc(C)c2-c2nc3ccccc3s2)[C@H](O)[C@@H]1O [Example 1506] | 0.5 to 5 µM
52 | Cc1nc(NCC2CC2)nc(N[C@@H]2C[C@H](CO)[C@@H](O)C2(C)O)c1-c1nc2cnccc2s1 (some centres unmarked) [Example 1383] | < 0.5 µM
53 | CCOCCNc1nc(C)c(-c2nc3c(C)nc(OCC)cc3s2)c(N[C@@H]2C[C@H](CO)[C@@H](O)[C@H]2O)n1 [Example 1376] | < 0.5 µM
54 | CO[C@@H]1[C@H](O)[C@@H](CO)C[C@H]1Nc1nc(NCC(F)(F)F)nc(C)c1-c1nc2ccccc2s1 [Example 1341] | < 0.5 µM
55 | Cc1nc(NCC(F)(F)F)nc(N[C@@H]2C[C@H](CO)[C@@H](O)[C@@]2(C)O)c1-c1nc2cnccc2s1 [Example 1709] | < 0.5 µM
56 | CCNC(=O)OC[C@H]1C[C@@H](Nc2nc(NCC3CC3)nc(C)c2-c2nc3ccccc3s2)[C@H](O)[C@@H]1O [Example 1629] | 0.5 to 5 µM
57 | Cc1nc(NCC(F)(F)F)nc(N[C@@H]2C[C@H](CN3CCCS3(=O)=O)[C@@H](O)[C@H]2O)c1-c1nc2ccccc2s1 [Example 1396] | < 0.5 µM
58 | Cc1ccc([C@H](C)Nc2nc(C)c(-c3nc4cnccc4s3)c(N[C@@H]3CC[C@@H](O)[C@@]3(C)O)n2)cc1 [Example 1810] | < 0.5 µM
59 | Cc1nc(NCC(F)(F)F)nc(N[C@@H]2C[C@H](CN(CC3CC3)S(C)(=O)=O)[C@@H](O)[C@H]2O)c1-c1nc2ccccc2s1 [Example 1395] | < 0.5 µM
